Here are results for 24 molecules from ChEMBL document CHEMBL3870347, “Antimycobacterial activity of novel hydrazide-hydrazone derivatives with 2H-chromene and coumarin scaffold” (Bioorg Med Chem Lett, 2017).

The nature of data set [1]: Selectivity index, ratio of IC50 for HEK293T cells to MIC for Mycobacterium tuberculosis H37Rv. The settings on record: human, read-out: Selectivity Index. Type of data set: toxicity, cell-based, HEK-293T.
Data set [2] deals with Mycobacterium tuberculosis. Description: Antimycobacterial activity against Mycobacterium tuberculosis H37Rv after 45 days. In kind it is functional.
Data set [3] in a line: Cytotoxicity against HEK293T cells assessed as decrease in cell viability after 72 hrs by MTT assay. In kind it is toxicity, cell-based, HEK-293T. The settings on record: human.

≈ marks a conversion by molar mass, not a printed value. Structures can show the parent of a compound that is named as a salt.

With `CC1Oc2ccccc2C=C1/C=N/NC(=O)c1ccncc1` (centres undefined), the selectivity ratio in data set [1] was found to be 449. Further, in data set [2], the MIC stood at 0.17 µM (≈ 0.0499 µg/mL). Further, the IC50 at 72 h in data set [3] worked out at 76.3 µM.
In data set [2], `O=C(N/N=C/c1c(Cl)c2ccccc2oc1=O)c1ccncc1` registered an MIC of 6.1 µM (≈ 2 µg/mL). Moreover, the IC50 at 72 h in data set [3] was found to be 12.6 µM.
For the molecule `CC[C@@H](CO)NCCN[C@@H](CC)CO` [ETHAMBUTOL HYDROCHLORIDE], in data set [2], the MIC amounted to 7.64 µM.
In data set [2], `O=C(N/N=C/c1c(Cl)c2ccccc2oc1=O)c1ccc(O)cc1` came in with an MIC of 5.83 µM (≈ 2 µg/mL). In addition, the IC50 at 72 h in data set [3] is 33.1 µM.
Regarding `COc1ccc(C(=O)N/N=C/C2=Cc3ccccc3OC2c2ccccc2)cc1` (centres undefined), in data set [1], the selectivity ratio amounted to 697. Further, the MIC in data set [2] is 0.13 µM (≈ 0.05 µg/mL). The IC50 at 72 h in data set [3] is 90.7 µM.
Regarding `O=C(N/N=C/C1=Cc2ccccc2OC1c1ccccc1)c1ccc(Cl)cc1` (centres undefined), the MIC in data set [2] was > 5.14 µM. Besides, the concentration for half-maximal inhibition (IC50) at 72 h in data set [3] stood at 13.2 µM.
Taken in the same sequence, the figures for `O=C(N/N=C/C1=Cc2ccccc2OC1)c1cccs1` were 7.03 µM (≈ 2 µg/mL) and 22.1 µM.
On to `CC1Oc2ccccc2C=C1/C=N/NC(=O)c1ccco1` (centres undefined), for which the selectivity ratio in data set [1] worked out at 118. The same molecule showed a minimal inhibitory concentration (MIC) in data set [2] of 0.18 µM (≈ 0.0508 µg/mL). Besides, in data set [3], the half-inhibitory concentration (IC50) at 72 h came out at 21.2 µM.
With `Cc1nnsc1C(=O)N/N=C/C1=Cc2ccccc2OC1c1ccccc1` (centres undefined), the selectivity ratio in data set [1] was determined as 56.9. In data set [2], this molecule registered an MIC of 0.53 µM (≈ 0.2 µg/mL). Moreover, the IC50 at 72 h in data set [3] worked out at 30.2 µM.
As for `O=C(N/N=C/c1c(Cl)c2ccccc2oc1=O)c1ccccc1`, 6.12 µM (≈ 2 µg/mL) was the least that counted as inhibitory in data set [2] (MIC). For the same molecule, the IC50 at 72 h in data set [3] was 28.6 µM.
Taken in the same sequence, the figures for `O=C(N/N=C/C1=Cc2ccccc2OC1c1ccccc1)c1ccc(F)cc1` (centres undefined) were 1.34 µM (≈ 0.499 µg/mL) and 30.9 µM.
`O=C(N/N=C/C1=Cc2ccccc2OC1)c1ccco1`: the selectivity ratio in data set [1] amounted to 63.9. In data set [2], the minimum inhibitory concentration (MIC) is 0.74 µM (≈ 0.199 µg/mL). In data set [3], the IC50 at 72 h amounted to 47.3 µM.
For `CC1Oc2ccccc2C=C1/C=N/NC(=O)c1ccc(O)cc1` (centres undefined) the same measures were 76.2, 0.64 µM (≈ 0.197 µg/mL) and 48.8 µM.
On to `O=C(N/N=C/C1=Cc2ccccc2OC1c1ccccc1)c1cccs1` (centres undefined), for which the MIC in data set [2] is > 5.54 µM.
In data set [2], `CC1Oc2ccccc2C=C1/C=N/NC(=O)c1ccccc1` (centres undefined) came in with an MIC of 6.84 µM (≈ 2 µg/mL). The IC50 at 72 h in data set [3] was 23.3 µM.
`NNC(=O)c1ccncc1` [ISONIAZID]: in data set [2], the MIC came out at 1.45 µM (≈ 0.199 µg/mL).
On to `CC1Oc2ccccc2C=C1/C=N/NC(=O)c1cccs1` (centres undefined), for which the MIC in data set [2] is > 6.7 µM.
Molecule `O=C(N/N=C/c1c(Cl)c2ccccc2oc1=O)c1ccc(F)cc1` showed a minimal inhibitory concentration (MIC) in data set [2] of 1.45 µM (≈ 0.5 µg/mL). For the same molecule, the IC50 at 72 h in data set [3] is 26.2 µM.
In data set [2], `O=C(N/N=C/C1=Cc2ccccc2OC1)c1ccc(Cl)cc1` gave a minimal inhibitory concentration (MIC) of 6.39 µM (≈ 2 µg/mL).
For the molecule `O=C(N/N=C/C1=Cc2ccccc2OC1c1ccccc1)c1ccco1` (centres undefined), the selectivity ratio in data set [1] was determined as 79.4. In data set [2], this molecule showed a minimal inhibitory concentration (MIC) of 0.15 µM (≈ 0.0517 µg/mL). The IC50 at 72 h in data set [3] stood at 11.9 µM.
Take `COc1ccc(C(=O)N/N=C/C2=Cc3ccccc3OC2)cc1`: the MIC in data set [2] stood at 6.48 µM (≈ 2 µg/mL). Besides, the IC50 at 72 h in data set [3] was 36 µM.
Turning to `Cc1nnsc1C(=O)N/N=C/c1c(Cl)c2ccccc2oc1=O`, in data set [1], the selectivity ratio was 45. In data set [2], the MIC turned out to be 0.67 µM (≈ 0.234 µg/mL). For the same molecule, the IC50 at 72 h in data set [3] came to 30.2 µM.
In data set [2], `COc1ccc(C(=O)N/N=C/C2=Cc3ccccc3OC2C)cc1` (centres undefined) came in with an MIC of 6.2 µM (≈ 2 µg/mL).
As for `CC1Oc2ccccc2C=C1/C=N/NC(=O)c1ccc(Cl)cc1` (centres undefined), the MIC in data set [2] is > 6.12 µM.
